Measured values published in PubChem BioAssay (NCI).
Where “and” joins values, the source holds several entries; their conditions need not be identical. Identical values can stand only once.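 Cells were grown in 96-well plates and exposed to each compound for 48 hours at five concentrations; endpoints were interpolated linearly between bracketing concentrations, or set to the highest concentration if not reached. Here, GI50 denotes the concentration required for 50% inhibition of growth. Definition used: TGI = concentration required for complete inhibition of growth.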

Key:
Experiment in all cases: inhibition of tumour cell growth, NCI panel, 48 h
ACHN renal = tested on: ACHN renal
BT-549 breast = tested on: BT-549 breast
HCT-15 colon = tested on: HCT-15 colon
K-562 leukemia = tested on: K-562 leukemia
RPMI-8226 leukemia = tested on: RPMI-8226 leukemia
SF-539 CNS = tested on: SF-539 CNS
SK-MEL-5 melanoma = tested on: SK-MEL-5 melanoma
SNB-19 CNS = tested on: SNB-19 CNS
SW-620 colon = tested on: SW-620 colon
UACC-62 melanoma = tested on: UACC-62 melanoma

SMILES	GI50 (ACHN renal) [µM]	TGI (ACHN renal) [µM]	GI50 (BT-549 breast) [µM]	TGI (BT-549 breast) [µM]	GI50 (HCT-15 colon)	TGI (HCT-15 colon) [µM]	GI50 (K-562 leukemia) [µM]	TGI (K-562 leukemia) [µM]	GI50 (RPMI-8226 leukemia) [µM]	TGI (RPMI-8226 leukemia)	GI50 (SF-539 CNS) [µM]	TGI (SF-539 CNS)	GI50 (SK-MEL-5 melanoma) [µM]	TGI (SK-MEL-5 melanoma) [µM]	GI50 (SNB-19 CNS) [µM]	TGI (SNB-19 CNS)	GI50 (SW-620 colon) [µM]	TGI (SW-620 colon) [µM]	GI50 (UACC-62 melanoma) [µM]	TGI (UACC-62 melanoma) [µM]
Cc1noc(C)c1-c1cnc2c(-c3ccc(C(=O)O)cc3)cn([C@@H](C)c3ccccn3)c2c1	1.38	> 100	11.8	> 100	0.418 µM	> 100	0.964	> 100	0.155	> 100 µM	0.842	> 100 µM	0.644	4.07	1.58	> 100 µM	15.6	> 100	0.0954	20.2
O=C(CN(/C=C/C(=O)C(F)(F)F)c1ccccc1)c1ccc(Cl)cc1	21.7	56.3	31.2	91.9	19.2 µM	46	20.9	53.2	9.66	43.1 µM	22.7	47 µM	16.4	31.6	22	51.5 µM	22.1	45.8	13.1	25.8
CC[C@@H](O)C[C@H]1CCC[C@@]2(C[C@@H]3OC(=O)/C=C/[C@@](C)(O)[C@@H](O)[C@H](C)[C@@H](O)[C@H](OC4CCC(N(C)C)C(C)O4)[C@@H](O)[C@](C)(O)CCCCC/C=C/[C@@H]4CC(C)(C)O[C@@]4(O)C[C@H](O2)[C@H]3C)O1 (stereo partly drawn)	–	17.6	–	29.2	–	29.2	–	21.5	–	25 µM	–	23.3 µM	–	2.04	–	20.6 µM	–	53.6	–	21.8
CN(C)CCCCCNc1c2ccccc2nc2cccc([N+](=O)[O-])c12	0.00374	0.00325	–	0.00262	0.00218 µM and 0.00274 µM	–	0.00212	> 0.0945	–	> 0.1 µM and 0.0188 µM	–	0.00979 µM and 0.0157 µM	0.00693	0.00335	–	> 0.0231 µM and 0.0317 µM	0.00632	0.0126	0.00522	0.00404
Cn1cc(C2=C(c3ccccc3C(F)(F)F)C(=O)NC2=O)c2ccccc21	8.06	> 25	11	> 25	9.59 µM	> 25	8.82	> 25	10.7	> 25 µM	11.1	> 25 µM	4.74	13	21	> 25 µM	10.2	> 25	9.97	> 25
COc1cc(-c2cc3ncccc3c3[nH]c(=O)c4cccnc4c23)cc(OC)c1OC	0.885	> 100	0.427	55.2	0.683 µM	> 100	0.392	> 100	1.3	47.5 µM	0.488	5.84 µM	0.51	3.17	0.981	> 100 µM	0.493	> 100	0.496	30.3
O=C(Nc1ccc2c(c1)OCCO2)C(=O)c1c[nH]c2ccccc12	5.19	> 100	3.48	38.1	0.967 µM	> 100	0.369	> 100	2.34	> 100 µM	1.5	5.32 µM	1.47	> 100	2.88	79.7 µM	0.475	> 100	1.43	> 100
C=C1C(=O)O[C@H]2[C@H]1CC/C(COC(=O)NCCc1cccc(OC)c1)=C\CC[C@@]1(C)O[C@@H]21	1.12	2.58	1.51	3.12	1.02 µM	2.62	0.613	6.25	0.917	4.34 µM	1.49	2.96 µM	1.84	3.57	1.43	3.13 µM	0.502	2.01	–	–
O=C(/C=C\n1cnc(-c2cc(C(F)(F)F)cc(C(F)(F)F)c2)n1)N1CC(F)(F)C1	1.3	> 25	0.0336	0.223	0.651 µM	4.86	0.43	> 25	0.408	17.9 µM	0.161	1.58 µM	0.644	4.08	0.273	> 25 µM	0.318	12.9	1.17	9.2
CCOc1ccc(N=Cc2ccnc3ccccc23)cc1	–	> 100	–	> 81.1	–	> 87.9	–	46.9	–	35.1 µM	–	85.9 µM	–	> 82.6	–	> 100 µM	–	> 100	–	> 100
COc1ccc(-c2nn3ncccc3c2-c2ccnc(Nc3ccc4c(c3)OCCO4)n2)cc1	2.86	> 25	12.8	> 25	6.89 µM	> 25	9.06	> 25	4.69	> 20.7 µM	13	> 25 µM	6.26	> 25	16.3	> 25 µM	14.4	> 25	5.23	> 25
S=C(CSc1ccccc1)Nc1cccc2ccccc12	–	> 100	–	> 100	–	> 100	–	> 100	–	> 100 µM	–	76.4 µM	–	36.6	–	> 100 µM	–	> 100	–	> 100
CC(C)=C1CCC(CN2CCOCC2)C1=O (stereo not drawn)	–	23	–	31.8	–	22	–	6.33	–	12.5 µM	–	31.9 µM	–	30.7	–	> 91.9 µM	–	4.26	–	33
Nc1ccccc1C(=O)NC(=O)Nc1ccc(Oc2ncc(Br)cn2)c(Cl)c1	–	30.8	–	> 62.9	–	22.6	0.00659	18	–	29.6 µM	–	0.0204 µM	0.00688	1.71	–	14.7 µM	0.0181	26.3	0.00797	4.33
COc1ccc2nc3cccc([N+](=O)[O-])c3c(NCCNCCN(C)C)c2c1	0.0414	0.439	0.418	1.06	0.131 µM	–	0.0222	0.0987	0.0208	0.106 µM	0.199	0.429 µM	0.0325	0.13	0.223	1.17 µM	0.0486	2.27	0.121	0.3
Cc1cccc(Nc2cc(Cl)nc(SCC(=O)O)n2)c1C	–	> 100	–	> 100	–	> 100	–	> 100	–	> 100 µM	–	> 100 µM	–	> 100	–	> 100 µM	–	> 100	–	> 100
CCN(CC)c1ccc2nc3ccc(N=Nc4ccc(O)cc4)cc3[n+](-c3ccccc3)c2c1	4.1	21.1	10.5	31.8	6.87 µM	> 100	–	–	3.85	> 100 µM	13.3	91.2 µM	2.92	12.2	11	22.9 µM	2.24	6.38	4.14	23.3
COc1ccc2[nH]c(C(=O)OCc3ccc4cccc(O)c4n3)cc2c1	0.69	1.98	1.69	3.74	0.757 µM	3.18	0.283	2.66	0.288	0.874 µM	1.27	2.53 µM	1.76	3.18	2.83	11.2 µM	1.2	3.15	1.31	2.6
Nc1ccc(-c2ccc3ncc4ccc(=O)n(-c5cccc(C(F)(F)F)c5)c4c3c2)cn1	< 0.01	–	< 0.01	0.232	< 0.01 µM	11.7	< 0.014	> 43.2	< 0.01	0.241 µM	< 0.01	0.039 µM	< 0.01	0.0767	< 0.013	52.3 µM	< 0.0125	13.3	< 0.01	0.026
COc1ccc2c(c1)O/C(=C\c1cccc(OCC(=O)Nc3nc(C)c(C)s3)c1)C2=O	2.28	7	16.7	55.2	6.76 µM	> 100	2.65	–	1.66	3.97 µM	1.59	2.98 µM	2	> 100	27.5	> 100 µM	2.86	> 26.8	16.5	> 100
COc1cc(-c2nccc3cc4c(cc23)OCO4)cc(OC)c1OC	9.92	> 100	16.6	> 100	3.57 µM	> 100	–	–	4.98	> 100 µM	3.31	44.1 µM	3.16	> 100	7.34	> 100 µM	2.77	> 100	4.55	> 100
Cn1cncc1-c1c(F)cncc1NC(=O)c1c(N)nn2cc(F)cnc12	0.422	> 100	0.838	15.4	0.18 µM	> 100	0.389	> 100	1.53	9.4 µM	–	–	1.23	2.48	5.2	> 100 µM	4.12	> 100	2.22	6.9
CCOC(=O)C#Cc1c(C(=O)OCC)nnn1[C@@H]1O[C@H](CO)[C@H]2OC3(CCCCC3)O[C@H]21	1.8	3.41	8.66	20.8	1.87 µM	3.53	1.67	7.97	3.07	7.97 µM	–	–	13.7	26.6	18.3	40.5 µM	1.81	3.64	2.02	4.55
COc1cc(CN(c2ccc(C)cc2)C2OC(=O)c3ccccc32)cc(OC)c1OC (stereo not drawn)	3.21	> 100	0.727	99.3	0.568 µM	> 100	0.365	> 100	0.455	> 100 µM	0.393	> 100 µM	0.271	1.76	0.689	> 100 µM	–	–	0.582	> 100
CC(C)(C)c1nc(-c2cccc(NS(=O)(=O)c3c(F)cccc3F)c2F)c(-c2ccnc(N)n2)s1	0.211	> 100	37.5	> 72.1	22.2 µM	81.1	25.6	> 100	24.1	97 µM	39.2	> 100 µM	0.0129	> 100	71.5	> 100 µM	23.9	> 100	–	–
C[C@H](NC(=O)c1c(C(F)F)nn(C)c1Oc1cccc(C(F)(F)F)c1)c1ccc(C(=O)O)cc1	> 100	> 100	> 100	> 100	> 100 µM	> 100	–	–	> 100	> 100 µM	> 100	> 100 µM	> 100	> 100	> 100	> 100 µM	> 100	> 100	> 100	> 100
COc1cc2nc(-c3cccc4cccnc34)nc(NC3CCN(Cc4ccccc4)CC3)c2cc1OC	0.773	2.08	1.58	3.36	1.11 µM	2.43	–	–	1.6	4.54 µM	1.4	2.92 µM	1.66	3.18	1.34	3.16 µM	0.509	2.01	2	4.02
